In PubChem BioAssay (NCI):
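These data come from cells grown in 96-well plates and exposed to compound for 48 hours at five concentrations. Abbreviation: GI50, concentration required for 50% inhibition of growth. Definition used: TGI = concentration required for complete inhibition of growth.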

Experiments:
Experiment in all cases: growth of human tumour cells (NCI), 48 h
[1] = tested on: MDA-MB-468 breast
[2] = tested on: RPMI-8226 leukemia
[3] = tested on: SF-268 CNS
[4] = tested on: RXF 393 renal
[5] = tested on: HL-60(TB) leukemia
[6] = tested on: SNB-19 CNS
[7] = tested on: SN12C renal
[8] = tested on: A549 NSCLC
[9] = tested on: MCF7 breast
[10] = tested on: MOLT-4 leukemia
[11] = tested on: T-47D breast
[12] = tested on: MDA-MB-435
[13] = tested on: HT29 colon
[14] = tested on: OVCAR-8 ovarian
[15] = tested on: SK-OV-3 ovarian
[16] = tested on: NCI-H23 lung
[17] = tested on: SK-MEL-28 melanoma
[18] = tested on: KM12 colon
[19] = tested on: SF-539 CNS
[20] = tested on: OVCAR-5 ovarian
[21] = tested on: IGROV1 ovarian
[22] = tested on: K-562 leukemia
[23] = tested on: NCI-H226 lung
[24] = tested on: LOX IMVI melanoma
[25] = tested on: NCI/ADR-RES ovarian
[26] = tested on: HS 578T breast
[27] = tested on: BT-549 breast
[28] = tested on: 786-0 renal
[29] = tested on: OVCAR-3 ovarian
[30] = tested on: HOP-92 NSCLC
[31] = tested on: HCT-15 colon
[32] = tested on: UACC-62 melanoma
[33] = tested on: NCI-H460 lung
[34] = tested on: HCC-2998 colon
[35] = tested on: EKVX NSCLC
[36] = tested on: CCRF-CEM leukemia
[37] = tested on: SW-620 colon
[38] = tested on: M14 melanoma
[39] = tested on: COLO 205 colon
[40] = tested on: SK-MEL-5 melanoma
[41] = tested on: SF-295 CNS
[42] = tested on: SR leukemia
[43] = tested on: HOP-62 NSCLC
[44] = tested on: U251 CNS
[45] = tested on: DU-145 prostate
[46] = tested on: A498 renal
[47] = tested on: NCI-H522 lung
[48] = tested on: ACHN renal
[49] = tested on: MALME-3M melanoma
[50] = tested on: TK-10 renal
[51] = tested on: PC-3 prostate
[52] = tested on: CAKI-1 renal
[53] = tested on: OVCAR-4 ovarian
[54] = tested on: HCT-116 colon

CCC(=O)Nc1cc(Nc2cc(NC3CC3)n3ncc(C#N)c3n2)ccc1C
GI50 [1]: 1.16 µM | TGI [1]: 4.06 µM

Cc1ccc(S(=O)(=O)N2CCc3ccc(O)c4c3C2Cc2ccc3c(c2-4)OCO3)cc1 (stereo unspecified)
GI50 [1]: 0.743 µM | TGI [1]: 7.49 µM

Nc1c(F)cc(-c2nc3cc(F)ccc3[se]2)cc1Br
GI50 [1]: 0.026 µM | TGI [1]: 0.0933 µM

Nc1ncnc2c1ccn2[C@@H]1O[C@H]([C@H](O)c2ccc(Cl)c(F)c2)[C@@H](O)[C@H]1O
GI50 [1]: 40.7 µM | TGI [1]: > 100 µM

CC1(C)N=C(N)N=C(N)N1c1cccc(Br)c1
GI50 [1]: 0.4 µM | TGI [1]: > 85.1 µM

O=[N+]([O-])c1ccc(Sc2ccncn2)c([N+](=O)[O-])c1
GI50 [1]: 0.982 µM | TGI [1]: 3.78 µM

CN(C)CCOC(=O)Nc1nc2ccc(Sc3ccccc3)cc2[nH]1
GI50 [1]: 2.02 µM | TGI [1]: 7.73 µM

CCn1ccc(NS(=O)(=O)c2ccc(N)cc2)nc1=O
GI50 [1]: > 100 µM | TGI [1]: > 100 µM

CC1=C([Se]CC(OC(=O)[C@@H](CO)NC(=O)OC(C)(C)C)C(=O)NCCCCCC(=O)OCc2ccccc2)C(=O)c2ccccc2C1=O (stereo partly specified)
GI50 [1]: 1.49 µM | TGI [1]: 3.16 µM

CNC(=O)c1cc(Oc2ccc3c(c2)sc2nc(-c4ccc(N(C)C)cc4)cn23)ccn1
GI50 [1]: 0.3 µM | TGI [1]: > 50 µM

Cc1cc(Cl)cc(Cc2cc(Cl)cc(C)c2O)c1O
GI50 [1]: 2.22 µM | TGI [1]: 6.92 µM

COCCn1cc(-c2csc(-c3c[nH]c4ccc(Br)cc34)n2)c2cccnc21
GI50 [1]: 2.34 µM | TGI [1]: 7.63 µM

CN(C)CCNC(=O)NC[C@H]1CC[C@@H]2[C@H](O1)c1cc(C(F)(F)F)ccc1N[C@H]2c1ccccc1
GI50 [1]: 0.0349 µM | TGI [1]: 0.312 µM

COc1ccc(N(C)c2nc(Cl)nc3cnn(C)c23)cc1
GI50 [1]: < 0.01 µM | TGI [1]: > 100 µM

N#CC1C(=O)NC(c2ccccc2[N+](=O)[O-])c2sc3c(F)cccc3c21 (stereo unspecified)
GI50 [1]: 0.108 µM | TGI [1]: 0.283 µM

CCCN1CCC(c2ccc(Nc3nc(Nc4cc(F)ccc4C(N)=O)c4cc[nH]c4n3)c(OC)c2)CC1
GI50 [1]: 3.47 µM | TGI [1]: 7.39 µM

FC(F)(F)c1cc(Nc2ccc3cc(OCCCN4CCOCC4)ccc3n2)ccc1Cl
GI50 [1]: 1.91 µM | TGI [1]: 6.75 µM

Cc1nccc2c3ccc(OCc4cn(-c5ccc(Cl)cc5)nn4)cc3n(CC(C)C)c12
GI50 [1]: 0.968 µM | TGI [1]: 12 µM

Cc1ccc(S(=O)(=O)Nc2ccc(-c3cc(-c4cccc(F)c4)c(C#N)c(N)n3)cc2)cc1
GI50 [1]: 1.72 µM | TGI [1]: 3.76 µM

C[C@@H](Oc1cc(-n2cnc3ccc(OC[C@@H](O)CO)cc32)sc1C(N)=O)c1ccccc1Cl
GI50 [1]: 0.0159 µM | TGI [1]: 6.07 µM

C=CCc1c(O)c(C(=O)/C=C/c2ccccc2)c(OC)c2ccoc12
GI50 [1]: 3.07 µM | TGI [1]: 11.4 µM

CCN(Cc1ccc(F)cc1)c1ccc(CO)c(OC)c1
GI50 [1]: 0.435 µM | TGI [1]: 2.11 µM

C#Cc1cccc(NC(=O)c2ccc(NC(=O)CCl)cc2)c1
GI50 [1]: 18.8 µM | TGI [1]: 76.9 µM

COc1cccc(Nc2nccc(-c3cnn4ncccc34)n2)c1
GI50 [1]: 0.0484 µM | TGI [1]: 0.106 µM

COc1ccc(OC)c(/C=C/c2nc(SCc3ccccc3)n(-c3ccc(Cl)cc3)n2)c1
GI50 [1]: 5.12 µM | TGI [1]: 84.5 µM

CN(C)c1ccc(N=C2C=CC(=O)c3ccccc32)cc1
GI50 [1]: 2.15 µM | TGI [1]: 6.05 µM

COC1=CC(=O)c2nc(Cl)ccc2C1=O
GI50 [1]: 1.36 µM | TGI [1]: 2.67 µM

CN1CCN(Cc2cc(NC(=O)c3cccc(C#Cc4cccc5[nH]nc(N)c45)c3)cc(C(F)(F)F)c2)CC1
GI50 [1]: 1.75 µM | TGI [1]: 3.35 µM

COC(=O)[C@]12CC[C@@H](C)[C@H](C)[C@@H]1C1=CC[C@@H]3[C@@]4(C)C(C=O)=C[C@@](C)(COC(=O)/C=C/c5ccccc5)[C@@H]4[C@H](O)C[C@@]3(C)[C@]1(C)CC2
GI50 [1]: 2.59 µM | TGI [1]: 7.49 µM

C=C1C(=O)O[C@H]2[C@H]1CC/C(COC(=O)NCCCCCCCCNC(=O)OC/C1=C/CC[C@@]3(C)O[C@H]3[C@H]3OC(=O)C(=C)[C@@H]3CC1)=C\CC[C@@]1(C)O[C@@H]21
GI50 [1]: 0.191 µM | TGI [1]: 0.462 µM

COCc1c(-c2ccc(NC(=O)Nc3cc(C(F)(F)F)ccc3F)c(F)c2)c2c(N)ncnn2c1CN1CCOCC1
GI50 [1]: 1.62 µM | TGI [1]: 5.68 µM

COc1ccc(/C=C2\c3cc(OC)c(OC)c(OC)c3CC[C@@H]2O)cc1F
GI50 [1]: 1.16 µM | TGI [1]: > 100 µM

CN1CCN(Cc2ccc(NC(=O)c3cncc(C#Cc4cnc(N)c5cnccc45)c3)cc2C(F)(F)F)CC1
GI50 [1]: 0.285 µM | TGI [1]: 4.52 µM

C[C@H]1[C@@H](CC(=O)N[C@@H](Cc2coc3ccccc23)B(O)O)O[C@@H]2OC3(C)CC[C@H]4[C@H](C)CC[C@@H]1[C@@]24OO3
GI50 [2]: 0.267 µM | TGI [2]: 1.42 µM | GI50 [3]: 3.04 µM | TGI [3]: > 71 µM | GI50 [4]: 0.259 µM | TGI [4]: 1.12 µM | GI50 [1]: 0.917 µM | TGI [1]: 2.57 µM | GI50 [5]: 0.177 µM | TGI [5]: 2.04 µM | GI50 [6]: 3.43 µM | TGI [6]: > 71 µM | GI50 [7]: 2.18 µM | TGI [7]: 10.6 µM | GI50 [8]: 2.46 µM | TGI [8]: > 71 µM | GI50 [9]: 0.969 µM | TGI [9]: 15.6 µM | GI50 [10]: 0.267 µM | TGI [10]: 3.54 µM | GI50 [11]: 0.749 µM | TGI [11]: 3.03 µM | GI50 [12]: 0.287 µM | TGI [12]: 1.51 µM | GI50 [13]: 1.55 µM | TGI [13]: 4.86 µM | GI50 [14]: 2.08 µM | TGI [14]: 11.7 µM | GI50 [15]: 3.55 µM | TGI [15]: 13.4 µM | GI50 [16]: 1.62 µM | TGI [16]: 7.44 µM | GI50 [17]: 1.2 µM | TGI [17]: 3.63 µM | GI50 [18]: 1.98 µM | TGI [18]: 6.32 µM | GI50 [19]: 1.05 µM | TGI [19]: 2.47 µM | GI50 [20]: 1.65 µM | TGI [20]: 7.12 µM | GI50 [21]: 2.26 µM | TGI [21]: 9.3 µM | GI50 [22]: 1.14 µM | TGI [22]: 13.8 µM | GI50 [23]: 0.876 µM | TGI [23]: 2.14 µM | GI50 [24]: 0.892 µM | TGI [24]: 1.99 µM | GI50 [25]: 8.06 µM | TGI [25]: 37.2 µM | GI50 [26]: 1.9 µM | TGI [26]: 12 µM | GI50 [27]: 0.556 µM | TGI [27]: 1.8 µM | GI50 [28]: 2.84 µM | TGI [28]: 15.1 µM | GI50 [29]: 1.26 µM | TGI [29]: 5.18 µM | GI50 [30]: 1.34 µM | TGI [30]: 4.09 µM | GI50 [31]: 0.363 µM | TGI [31]: 4.29 µM | GI50 [32]: 1.06 µM | TGI [32]: 2.23 µM | GI50 [33]: 2.46 µM | TGI [33]: 12 µM | GI50 [34]: 1.23 µM | TGI [34]: 2.3 µM | GI50 [35]: 3.14 µM | TGI [35]: 22.2 µM | GI50 [36]: 0.322 µM | TGI [36]: 5.38 µM | GI50 [37]: 0.362 µM | TGI [37]: 10.2 µM | GI50 [38]: 1.33 µM | TGI [38]: 3.86 µM | GI50 [39]: 1.89 µM | TGI [39]: 8.9 µM | GI50 [40]: 1.13 µM | TGI [40]: 2.22 µM | GI50 [41]: 1.98 µM | TGI [41]: 7.69 µM | GI50 [42]: 0.143 µM | TGI [42]: 0.677 µM | GI50 [43]: 2.26 µM | TGI [43]: 8.31 µM | GI50 [44]: 2.14 µM | TGI [44]: 10.5 µM | GI50 [45]: 5.47 µM | TGI [45]: 62.1 µM | GI50 [46]: 2.28 µM | TGI [46]: 9.8 µM | GI50 [47]: 0.493 µM | TGI [47]: 1.81 µM | GI50 [48]: 2.01 µM | TGI [48]: > 71 µM | GI50 [49]: 1.07 µM | TGI [49]: 4.58 µM | GI50 [50]: 1.64 µM | TGI [50]: > 71 µM | GI50 [51]: 1.19 µM | TGI [51]: 18.8 µM | GI50 [52]: 3.63 µM | TGI [52]: 21.9 µM | GI50 [53]: 2.6 µM | TGI [53]: 68.5 µM | GI50 [54]: 0.783 µM | TGI [54]: 2.29 µM

COc1cnc2c(c1)C(=O)c1c-2n(CCCN2CCNCC2)c(=O)c2cc([N+](=O)[O-])ccc12
GI50 [1]: 0.257 µM | TGI [1]: 1.35 µM
